Laboratory results from patent publication US20220354827A1 (priority 2019, published 2022).
Like-named read-outs stand apart in the source and are kept apart here.

Experiments:
[1] = test system: LC3II in iPSCs from AD patients
Procedure: Western blotting was performed according to the standard procedure. Total protein extracts from iPSCs cells were obtained by lysing the cells in ice-cold lysis buffer (50 mM Tris-HCl, 150 mM NaCl and 1% Triton X-100) in the presence of a cocktail of protease inhibitors, as described by Hollomon, M G, et al., BMC Cancer 2013; 13:500, which is incorporated by reference in its entirety. After centrifugation, the supernatant was collected, and the total protein was quantified using a bicinchoninic acid (BCA) protein assay kit (Thermo Scientific, Rockford, Ill.). Equal amounts of protein for each lane were loaded and separated on 15% sodium dodecyl sulfate-polyacrylamide gel electrophoresis (SDSPAGE).
After electrophoresis, proteins were transferred onto a polyvinylidene fluoride (PVDF) membrane. The membranes were blocked with 5% fat-free milk dissolved in PBS-T for 1 h at room temperature, and then stained with primary antibody at 4° C. overnight. After the wash with PBS-T, the membranes were incubated with secondary antibodies (HRP conjugated anti-rabbit and anti-mouse IgG) at 1:1,000 dilutions, and β-actin served as a loading control. Signals were detected with an enhanced chemiluminescence detection system (Millipore, Billerica, Mass.) and quantified by scanning densitometry.

[2] = test system: iPSCs derived immature neurons
[3] = test system: ATP-mediated elevation of cytosolic calcium in cells from Alzheimer's disease patients; settings: for peak elevation of [Ca2+]c: ATP 30 μM, percentage of baseline
Procedure: The changes of cytosolic Ca^2+ concentration ([Ca^2+ ]c) of iPSCs after ATP exposure were measured using jellyfish photoprotein aequorin-based probe. 7.5-1.2×10^4 cells were plated on 12 mm coverslips in 24 well plate, grow to 50-60% confluence then transfected with the cyt-Aeq plasmid using Lipofectamine 3000 Transfection Reagent (Thermo Fisher Scientific) according to the manufacturer's instruction. The next day, the transfected cells were incubated with 5 μM coelenterazine for 1 h in modified Krebs-Ringer buffer (in mM: 140 NaCl, 2.8 KCl, 2 MgCl2, 10 Hepes, 11 glucoses, pH 7.4) supplemented with 1 mM CaCl2 and then were transferred to the perfusion chamber. All aequorin measurements were carried out in KRB, anesthetics were added to the same medium as specified. The experiments were performed in a custom-built aequorin recording system. For extracellular Ca^2+ free experiments, Ca^2+ free buffer was used (KRB without Ca^2+ with 5 mM EGTA). The experiments were terminated by lysing the cells with 100 μM digitonin in a hypotonic Ca^2+-rich solution (10 mM CaCl2 in H2O), thus discharging the remaining aequorin pool. The light signal was collected and calibrated into [Ca^2+ ]c values by an algorithm based on the Ca^2+ response curve of aequorin at physiological conditions of pH, [Mg^2+], and ionic strength, as previously described by Filadi R, et al., PNAS 2015; 201504880; Bonora M, et al., Nat Protoc 2013; 8:2105, each of which is incorporated by reference in its entirety.

[4] = test system: vacuolar-type H+-ATPase (V-ATPase) in lysosomes (LAMP-2) of iPSC; settings: dantrolene 30 μM
[5] = 11 months of age
[6] = test system: glutamate mediated elevation of mitochondrial calcium concentration in iPSC-derived neurons; settings: FAD neurons; glutamate 20 mM; dantrolene 20 μM pretreatment 1 hour
[7] = test system: wild type (WT) and 5XFAD (TG) mice; settings: all groups
[8] = test system: cortical neurons generated from SAD and FAD patient iPSCs; settings: dantrolene for 3 days
[9] = intranasal 5 mg/kg, 3 times/wk, 4 months; vs vehicle
[10] = test system: cortical neurons generated from SAD and FAD patient iPSCs; settings: FAD cells; dantrolene treatment
[11] = all groups, 10 months of age
[12] = test system: amyloid plaques in hippocampus and cortex of 5XFAD mice; settings: IN-DAN, SQ-DAN, ETG and LTG
[13] = mouse, in vivo
[14] = intranasal 5 mg/kg, 3 times/wk, 3 weeks; vs vehicle
[15] = test system: NMDA mediated elevation of cytosolic Ca2+ concentrations in iPSC from AD patients
[16] = not given; remark: listed apart in the source
[17] = test system: 5XFAD mice; settings: for hippocampus-dependent memory (CFC) vs untreated 5XFAD controls / hippocampus-independent memory (FC-cued) vs controls: 6 months of age
[18] = test system: induced pluripotent stem cells (iPSCs) from Alzheimer's disease (AD) patients; settings: 24 h; for increase of MTT (cell viability): dantrolene 30 μM
Procedure: (§1) Human control (AG02261) and sporadic Alzheimer's disease (AG11414) iPSCs were obtained from John A. Kessler's lab. Familial Alzheimer's disease (GM24675) iPSCs were purchased from Coriell Institute. Each type of iPSC was generated from skin fibroblasts of one heathy human subject or one patient diagnosed of either SAD or FAD. The human pluripotent stem cells were maintained on Matrigel coated plates (BD Biosciences) in mTeSR™1 medium (Catalog #05850, Stem cell Technologies) and were cultured in a 5% CO2 humidified atmosphere at 37° C. The culture medium was changed every day.
The cell viability on different wells in 96-well plates was determined using the MTT (3-(4,5-dimethylthiazol-2-yl)-2,5-diphenyltetrazolium bromide, Sigma-Aldrich, St. Louis, Mo.) reduction assay at 24 h as previously described by Qiao H, et al., Anesthesiology 2017; 127:490; Ren G, et al., Sci Rep 2017; 7:12378, each of which is incorporated by reference in its entirety. After being washed with PBS, the samples were incubated with fresh culture medium containing MTT (0.5 mg/mL in the medium) at 37° C. for 4 h in the dark. The medium was then removed and formazan was solubilized with dimethyl sulfoxide (DMSO). The absorbance was measured at 540 nm with plate reader (Synergy™ H1 microplate reader, BioTek, Winooski, Vt.).

[19] = test system: iPSC from AD patients; settings: compared with DMSO
Procedure: As described previously by Ren G, et al., Sci Rep 2017; 7:12378, which is incorporated by reference in its entirety, LysoTracker® Red DND-99 (Molecular Probe, Eugene, Oreg.) probe stock solution was diluted to a working concentration of 50 nM in HBSS+. IPSCs cells were plated on coverslips coated with Matrigel (BD Biosciences) in mTeSR™1 (Catalog #05850). After being washed three times with HBSS+, the cells were loaded with pre-warmed (37° C.) probe containing HBSS+ and incubated for 1 h at 37° C. Fresh medium was added to replace the labeling solution. The cells were observed by a fluorescent microscope fitted with the correct filter set for the probe used, to determine if the cells were sufficiently fluorescent. LysoTracker Red used an […].

[20] = test system: induced pluripotent stem cells (iPSCs) from Alzheimer's disease (AD) patients; settings: FAD cells; vs DMSO vehicle
Procedure: as §1

In the case of bafilomycin, the “LC3II level on co-treatment with dantrolene” value ([1]; SAD and FAD iPSCs, vs dantrolene alone) is reported as “further elevated”.
With glutamate the “cytosolic ATP production” value ([2]; glutamate 20-30 mM, 24 hours) was “dose dependently decreased”.
In the case of `Nc1ncnc2c1ncn2[C@@H]1O[C@H](COP(=O)(O)OP(=O)(O)OP(=O)(O)O)[C@@H](O)[C@H]1O` [ATP, adenosine triphosphate], the “peak elevation of [Ca2+]c” value ([3]; FAD cells) is reported as 128.3%, the “peak elevation of [Ca2+]c” value ([3]; SAD cells) is reported as 140.4% and the “peak elevation of [Ca2+]c” value ([3]; control cells) is reported as 84.1%.
For `O=C1CN(/N=C/c2ccc(-c3ccc([N+](=O)[O-])cc3)o2)C(O)=N1` [dantrolene], the “V-ATPase in lysosomes (LAMP-2) compared with controls” value ([4]; FAD cells) was “no longer significantly reduced”, the “V-ATPase in lysosomes (LAMP-2) compared with controls” value ([4]; SAD cells) was “remained significantly lower” and the “hepatic pathology (H&E stained sections)” value ([5]; 5XFAD ETG mice) was “No gross differences”. The “hepatic pathology (H&E stained sections)” value ([5]; WT ETG mice) was “No gross differences”, the “glutamate-induced overall exposure (AUC) of mitochondrial calcium concentration” value [6] was “abolished” and the “glutamate-induced peak elevation of mitochondrial calcium concentration” value [6] was “abolished”. The “number of times the animals crossed the platform” value ([7]; 10 months) was “no significant differences”, the “percent time in the target quadrant (probe trial) vs controls” value ([7]; 10 months) was “no significant differences” and the “escape latency in place trials vs controls” value ([7]; 10 months of age) was “no significant differences”. The “mean number of dendrite intersections at around 150 μM from soma” value ([8]; FAD cells) was “significantly greater”, the “mean number of dendrite intersections at around 150 μM from soma” value ([8]; SAD cells) was “significantly greater” and the “motor function, time spent on the rotarod” value [9] was “No significant differences”. For the same compound, the “increase of LC3II level” value ([1]; FAD iPSCs, P<0.001) was 49.4%, the “increase of LC3II level” value ([1]; SAD iPSCs, P=0.3483) was 47.3% and the PSD95 density [10] was “significantly greater”. The synapsin-1 density [10] was “significantly increased”, the “olfaction (buried food test)” value ([11]; 5XFAD) was “No significant differences” and the “olfaction (buried food test)” value ([11]; WT) was “No significant differences”. For the same compound, the “number of amyloid plaques per area (mm^2) in hippocampus and cortex” value [12] was “No significant differences”, the “percent area of the hippocampus and cortex occupied by plaques” value ([12]; vs control) was “No significant differences” and the “motor function (rotarod) vs control group” value [13] was “No significant differences”. For the same compound, the “glutamate-induced reduction of cytosolic ATP concentration” value ([2]; neurons derived from AD patients) was “significantly inhibited”, the “olfaction, time to retrieve buried food” value [14] was “No significant differences” and the “integrated cytosolic Ca2+ (AUC), ATP+Ca2++DAN vs ATP+Ca2+” value ([3]; FAD cells, dantrolene 30 μM pretreatment, 1 mM extracellular Ca2+) was “significantly reduced”. For the same compound, the “ATP-mediated peak or overall elevation of [Ca2+]c” value ([3]; absence of extracellular Ca2+ influx, SAD/FAD cells, not statistically significant) was “only trended to inhibit”, the “integrated cytosolic Ca2+ (AUC), ATP+Ca2++DAN vs ATP+Ca2+” value ([3]; control cells, dantrolene 30 μM pretreatment, 1 mM extracellular Ca2+) was “significantly reduced” and the “peak cytosolic [Ca2+]c, ATP+Ca2++DAN” value ([3]; dantrolene 30 μM pretreatment, 1 mM extracellular Ca2+, between groups) was “no significant differences”. The “NMDA-mediated elevation of [Ca2+]c and AUC” value [15] was “ameliorated”, the “plasma alanine aminotransferase (ALT) activity vs control group” value (5XFAD, 6-month intranasal treatment in LTG) was “significantly increased” and the “plasma alanine aminotransferase (ALT) activity vs control group” value (5XFAD, other treatment groups) was “No significant differences”. The “plasma alanine aminotransferase (ALT) activity vs control group” value (WT, 6-month subcutaneous treatment in LTG) was “significantly increased”, the “plasma alanine aminotransferase (ALT) activity vs control group” value (WT, other treatment group) was “No significant difference” and the bodyweight growth curve ([16]; 5XFAD mice, ETG groups) was “No significant differences”. For the same compound, the body weight ([16]; WT, 12 months of age) was “No significant difference”, the “hippocampus-dependent memory (CFC) vs untreated 5XFAD controls” value ([17]; IN-DAN, ETG) was “significantly greater memory” and the “hippocampus-independent memory (FC-cued) vs controls” value ([17]; IN-DAN, ETG) was “significantly improved”. The “hippocampus-dependent memory (CFC) vs 5XFAD controls” value ([17]; IN-DAN, ETG, 11 months of age) was “significantly greater”, the “hippocampus-independent memory (FC-cued) vs 5XFAD CON” value ([17]; IN-DAN, ETG, 11 months of age) was “significantly better” and the “hippocampus-independent memory (FC-cued) vs 5XFAD CON” value ([17]; IN-DAN, LTG, 11 months) was “No significant memory improvement”. For the same compound, the “hippocampus-dependent memory (CFC) vs 5XFAD CON” value ([17]; IN-DAN, LTG, 11 months of age) was “significantly improved”, the “hippocampus-dependent memory (CFC) vs untreated 5XFAD controls” value ([17]; SQ-DAN, ETG) was “significantly greater memory” and the “hippocampus-independent memory (FC-cued) vs controls” value ([17]; SQ-DAN, ETG) was “significantly improved”. For the same compound, the “hippocampus-independent memory (FC-cued) vs 5XFAD CON” value ([17]; SQ-DAN, ETG, 11 months of age) was “trended to improve memory but were not statistically different”, the “hippocampus-independent memory (FC-cued) vs 5XFAD CON” value ([17]; SQ-DAN, LTG, 11 months) was “No significant memory improvement” and the “hippocampus-dependent memory (CFC) vs 5XFAD CON” value ([17]; SQ-DAN, LTG, 11 months of age) was “trended to be better but was not statistically significant”. For the same compound, the “increase of MTT (cell viability)” value ([18]; iPSC FAD) was 67.6%, the “increase of MTT (cell viability)” value ([18]; iPSC SAD) was 15.1% and the “cell viability (MTT)” value ([18]; iPSCs from healthy human subjects (CON), 30 μM) was “did not affect”. The lysotracker-positive acidic vesicles ([19]; FAD cells) was “significantly increased”, the lysotracker-positive acidic vesicles ([19]; SAD cells) was “significantly increased” and the “cell proliferation, percentage of BrdU-positive cells” value [20] was “greater proliferation”.
